Measured values taken from patent publication US11918581B2, “Combination therapy comprising JAK pathway inhibitor and rock inhibitor” (Incyte Corporation, priority 2021, dated 2024).

Key:
[1] = molecular target: human JAK2 (a.a. 828-1132) (Homo sapiens (Human), UniProt O60674); experiment: In vitro JAK kinase assay (HTRF), JAK2; assay type: biochemical; conditions: JAK2/JAK1 IC50 ratio, 1 mM ATP
Protocol: (§1) The catalytic activity of JAK1, JAK2, or JAK3 was assayed by measuring the phosphorylation of a biotinylated peptide. The phosphorylated peptide was detected by homogenous time resolved fluorescence (HTRF). […] Reactions are carried out at room temperature for 1 hour and then stopped with 20 μL 45 mM EDTA, 300 nM SA-APC, 6 nM Eu-Py20 in assay buffer (Perkin Elmer, Boston, MA). Binding to the Europium labeled antibody takes place for 40 minutes and HTRF signal was measured on a Fusion plate reader (Perkin Elmer, Boston, MA).

[2] = molecular target: human JAK1 (a.a. 837-1142) (Homo sapiens, UniProt P23458); experiment: In vitro JAK kinase assay (HTRF), JAK1; assay type: biochemical; conditions: 1 mM ATP
Protocol: as §1

human JAK2 (a.a. 828-1132), sequence (O60674 828-1132): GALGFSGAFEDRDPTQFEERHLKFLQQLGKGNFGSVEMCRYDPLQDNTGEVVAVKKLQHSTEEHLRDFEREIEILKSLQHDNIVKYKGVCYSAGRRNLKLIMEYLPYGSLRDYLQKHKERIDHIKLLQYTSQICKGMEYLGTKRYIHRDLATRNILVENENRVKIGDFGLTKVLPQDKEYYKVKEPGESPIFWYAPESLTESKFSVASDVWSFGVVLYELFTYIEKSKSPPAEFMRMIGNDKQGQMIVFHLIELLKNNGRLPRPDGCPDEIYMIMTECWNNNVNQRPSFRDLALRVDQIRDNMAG

Structure (SMILES)	JAK2/JAK1 [1]	IC50 [2] [nM]
N#CCC(C1CCN(c2cccc(Cl)n2)C1)n1cc(-c2ncnc3[nH]ccc23)cn1 (single isomer, unassigned) [Compound 6, 3-[1-(6-chloropyridin-2-yl)pyrrolidin-3-yl]-3-[4-(7H-pyrrolo[2,3-d]pyrimidin-4-yl)-1H-pyrazol-1-yl]propanenitrile]	>10	< 10
N#CCC1(n2cc(-c3ncnc4[nH]ccc34)cn2)CN(C2CCN(C(=O)Nc3ccc(F)cc3C(F)(F)F)CC2)C1 [Compound 2, 4-{3-(Cyanomethyl)-3-[4-(7H-pyrrolo[2,3-d]pyrimidin-4-yl)-1H-pyrazol-1-yl]azetidin-1-yl}-N-[4-fluoro-2-(trifluoromethyl)phenyl] piperidine-1-carboxamide]	>10	< 10
N#CCC1(n2cc(-c3ncnc4[nH]ccc34)cn2)CN(C2CCN(C(=O)c3ccnc(C(F)(F)F)n3)CC2)C1 [Compound 3, [3-[4-(7H-pyrrolo[2,3-d]pyrimidin-4-yl)-1H-pyrazol-1-yl]-1-(1-{[2-(trifluoromethyl)pyrimidin-4-yl]carbonyl}piperidin-4-yl)azetidin-3-yl]acetonitrile]	>10	< 10
C[C@@H](O)c1nc2cnc3ccsc3c2n1[C@H]1CC[C@H](CC#N)OC1 [Compound 5, ((2R,5S)-5-{2-[(1R)-1-hydroxyethyl]-1H-imidazo[4,5-d]thieno[3,2-b]pyridin-1-yl}tetrahydro-2H-pyran-2-yl)acetonitrile]	>10	< 100
N#CCC(C1CCN(c2nc3cccnc3o2)C1)n1cc(-c2ncnc3[nH]ccc23)cn1 (stereo not drawn) [Compound 7, 3-(1-[1,3]oxazolo[5,4-b]pyridin-2-ylpyrrolidin-3-yl)-3-[4-(7H-pyrrolo[2,3-d]pyrimidin-4-yl)-1H-pyrazol-1-yl]propanenitrile]	>10	< 10
N#CCC(CN1CCN(C(=O)c2ccc(C#N)cc2F)CC1)n1cc(-c2ncnc3[nH]ccc23)cn1 (stereo not drawn) [Compound 8, 4-[(4-{3-cyano-2-[4-(7H-pyrrolo[2,3-d]pyrimidin-4-yl)-1H-pyrazol-1-yl]propyl}piperazin-1-yl)carbonyl]-3-fluorobenzonitrile]	>10	< 10
N#CCC(CN1CCN(C(=O)c2ccc(C#N)cc2F)CC1)n1ccc(-c2ncnc3[nH]ccc23)c1 (stereo not drawn) [Compound 9, 4-[(4-{3-cyano-2-[3-(7H-pyrrolo[2,3-d]pyrimidin-4-yl)-1H-pyrrol-1-yl]propyl}piperazin-1-yl)carbonyl]-3-fluorobenzonitrile]	>10	< 10
N#CC[C@]1(n2cc(-c3ncnc4[nH]ccc34)cn2)C[C@H](N2CCN(C(=O)c3ccnc(C(F)(F)F)n3)CC2)C1 [Compound 10, [trans-1-[4-(7H-pyrrolo[2,3-d]pyrimidin-4-yl)-1H-pyrazol-1-yl]-3-(4-{[2-(trifluoromethyl)pyrimidin-4-yl]carbonyl}piperazin-1-yl)cyclobutyl]acetonitrile]	>10	< 10
C[C@H](NC(=O)c1cc(F)c(N2CC(CC#N)(n3cc(-c4ncnc5[nH]ccc45)cn3)C2)cc1F)C(F)(F)F [Compound 16, 4-{3-(cyanomethyl)-3-[4-(7H-pyrrolo[2,3-d]pyrimidin-4-yl)-1H-pyrazol-1-yl]azetidin-1-yl}-2,5-difluoro-N-[(1S)-2,2,2-trifluoro-1-methylethyl]benzamide]	>10	< 10
C[C@@H](CO)NCc1cc(OC2CCN([C@H]3C[C@](CC#N)(n4cc(-c5ncnc6[nH]ccc56)cn4)C3)CC2)nc(C(F)(F)F)c1 [Compound 23, {trans-3-(4-{[4-({[(1S)-2-hydroxy-1-methylethyl]amino}methyl)-6-(trifluoromethyl)pyridin-2-yl]oxy}piperidin-1-yl)-1-[4-(7H-pyrrolo[2,3-d]pyrimidin-4-yl)-1H-pyrazol-1-yl]cyclobutyl}acetonitrile]	>10	< 10
C[C@@H](O)CNCc1cc(OC2CCN([C@H]3C[C@](CC#N)(n4cc(-c5ncnc6[nH]ccc56)cn4)C3)CC2)nc(C(F)(F)F)c1 [Compound 24, {trans-3-(4-{[4-({[(2R)-2-hydroxypropyl]amino}methyl)-6-(trifluoromethyl)pyridin-2-yl]oxy}piperidin-1-yl)-1-[4-(7H-pyrrolo[2,3-d]pyrimidin-4-yl)-1H-pyrazol-1-yl]cyclobutyl}acetonitrile]	>10	< 10
C[C@H](O)CNCc1cc(OC2CCN([C@H]3C[C@](CC#N)(n4cc(-c5ncnc6[nH]ccc56)cn4)C3)CC2)nc(C(F)(F)F)c1 [Compound 25, {trans-3-(4-{[4-({[(2S)-2-hydroxypropyl]amino}methyl)-6-(trifluoromethyl)pyridin-2-yl]oxy}piperidin-1-yl)-1-[4-(7H-pyrrolo[2,3-d]pyrimidin-4-yl)-1H-pyrazol-1-yl]cyclobutyl}acetonitrile]	>10	< 10

Other lines, results leading:

JAK2/JAK1 [1]	IC50 [2] [nM]	Structure (SMILES)
>10	< 10	N#CC[C@]1(n2cc(-c3ncnc4[nH]ccc34)cn2)C[C@H](N2CCC(Oc3cc(CN4CC(O)C4)cc(C(F)(F)F)n3)CC2)C1 [Compound 11, {trans-3-(4-{[4-[(3-hydroxyazetidin-1-yl)methyl]-6-(trifluoromethyl)pyridin-2-yl]oxy}piperidin-1-yl)-1-[4-(7H-pyrrolo[2,3-d]pyrimidin-4-yl)-1H-pyrazol-1-yl]cyclobutyl}acetonitrile]
>10	< 10	N#CC[C@]1(n2cc(-c3ncnc4[nH]ccc34)cn2)C[C@H](N2CCC(Oc3cc(CN4CCC[C@H]4CO)cc(C(F)(F)F)n3)CC2)C1 [Compound 12, {trans-3-(4-{[4-{[(2S)-2-(hydroxymethyl)pyrroli-din-1-yl]methyl}-6-(trifluoromethyl)pyridin-2-yl]oxy}piperidin-1-yl)-1-[4-(7H-pyrrolo[2,3-d]pyrimidin-4-yl)-1H-pyrazol-1-yl]cyclobutyl}acetonitrile]
>10	< 10	N#CC[C@]1(n2cc(-c3ncnc4[nH]ccc34)cn2)C[C@H](N2CCC(Oc3cc(CN4CCC[C@@H]4CO)cc(C(F)(F)F)n3)CC2)C1 [Compound 13, {trans-3-(4-{[4-{[(2R)-2-(hydroxymethyl)pyrroli-din-1-yl]methyl}-6-(trifluoromethyl)pyridin-2-yl]oxy}piperidin-1-yl)-1-[4-(7H-pyrrolo[2,3-d]pyrimidin-4-yl)-1H-pyrazol-1-yl]cyclobutyl}acetonitrile]
>10	< 10	N#CCC1(n2cc(-c3ncnc4[nH]ccc34)cn2)CN([C@H]2CC[C@@H](Oc3cc(CCO)nc(C(F)(F)F)n3)CC2)C1 [Compound 18, {1-(cis-4-{[6-(2-hydroxyethyl)-2-(trifluoromethyl)pyrimidin-4-yl]oxy}cyclohexyl)-3-[4-(7H-pyrrolo[2,3-d]pyrimidin-4-yl)-1H-pyrazol-1-yl]azetidin-3-yl}acetonitrile]
>10	< 10	CCNCc1cc(O[C@H]2CC[C@@H](N3CC(CC#N)(n4cc(-c5ncnc6[nH]ccc56)cn4)C3)CC2)nc(C(F)(F)F)c1 [Compound 19, {1-(cis-4-{[4-[(ethylamino)methyl]-6-(trifluoromethyl)pyridin-2-yl]oxy}cyclohexyl)-3-[4-(7H-pyrrolo[2,3-d]pyrimidin-4-yl)-1H-pyrazol-1-yl]azetidin-3-yl}acetonitrile]
>10	< 10	CC(C)(O)c1cc(O[C@H]2CC[C@@H](N3CC(CC#N)(n4cc(-c5ncnc6[nH]ccc56)cn4)C3)CC2)nc(C(F)(F)F)c1 [Compound 20, {1-(cis-4-{[4-(1-hydroxy-1-methylethyl)-6-(trifluoromethyl)pyridin-2-yl]oxy}cyclohexyl)-3-[4-(7H-pyrrolo[2,3-d]pyrimidin-4-yl)-1H-pyrazol-1-yl]azetidin-3-yl}acetonitrile]
>10	< 10	N#CCC1(n2cc(-c3ncnc4[nH]ccc34)cn2)CN([C@H]2CC[C@@H](Oc3cc(CN4CC[C@@H](O)C4)cc(C(F)(F)F)n3)CC2)C1 [Compound 21, {1-(cis-4-{[4-{[(3R)-3-hydroxypyrrolidin-1-yl]methyl}-6-(trifluoromethyl)pyridin-2-yl]oxy}cyclohexyl)-3-[4-(7H-pyrrolo[2,3-d]pyrimidin-4-yl)-1H-pyrazol-1-yl]azetidin-3-yl}acetonitrile]
>10	< 10	N#CCC1(n2cc(-c3ncnc4[nH]ccc34)cn2)CN([C@H]2CC[C@@H](Oc3cc(CN4CC[C@H](O)C4)cc(C(F)(F)F)n3)CC2)C1 [Compound 22, {1-(cis-4-{[4-{[(3S)-3-hydroxypyrrolidin-1-yl]methyl}-6-(trifluoromethyl)pyridin-2-yl]oxy}cyclohexyl)-3-[4-(7H-pyrrolo[2,3-d]pyrimidin-4-yl)-1H-pyrazol-1-yl]azetidin-3-yl}acetonitrile]
>10	< 10	N#CC[C@]1(n2cc(-c3ncnc4[nH]ccc34)cn2)C[C@H](N2CCC(Oc3cc(CCO)cc(C(F)(F)F)n3)CC2)C1 [Compound 26, {trans-3-(4-{[4-(2-hydroxyethyl)-6-(trifluoromethyl)pyridin-2-yl]oxy}piperidin-1-yl)-1-[4-(7H-pyrrolo[2,3-d]pyrimidin-4-yl)-1H-pyrazol-1-yl]cyclobutyl}acetonitrile]
